The subject of this experiment is CRMM1 cells injected into the Duct of Cuvier of zebrafish embryos. Put plainly: Zebrafish ectopic CM tumour model, CRMM1. It counts as in vivo, Zebrafish (Danio rerio). The settings on record: for PI (Fluorescence Intensity) / PI (Tumour Area) / Relative Tumour Burden as Measured by Fluorescence Intensity / Tumour Area: CRMM1, Ectopic Model; for PI (Fluorescence Intensity) / PI (Tumour Area): 0 vs 114 J.cm^−2. The protocol:
The zebrafish ectopic conjunctival melanoma tumour model has been described previously. In this model, around 200 fluorescent CM cells are injected into the Duct of Cuvier at 2 dpf, and then disseminate through the blood circulation and grow in the head and tail. To establish the orthotopic tumour model, around 100 red, (td)Tomato fluorescent CRMM1 or CRMM2 cells were injected RO at 2 dpf into tg(Fli:GFP/Casper), endothelial reporter transgenic zebrafish with green fluorescent vasculature and examined by fluorescent microscopy at day 1 and 4 after engraftment (Figure 6A). Tumour expansion at the injection site was measured as fluorescence intensity and tumour area.
For cancer cell injection, two days post-fertilization (dpf), dechorionated zebrafish embryos were anaesthetized with 0.003% tricaine (Sigma) and plated on a 10 cm Petri dish covered with 1.5% of solidified agarose. CRMM1 and CRMM2 cells were suspended in PBS containing 2% polyvinylpyrrolidone (PVP; Sigma-Aldrich) with a concentration of 50,000 cells/µL and loaded into borosilicate glass capillary needles (1 mm O.D. × 0.78 mm I.D.; Harvard Apparatus). In the ectopic model, 200 (td)Tomato fluorescent CM cells were injected into the Duct of Cuvier or at 2 dpf, which led to dissemination through the blood circulation and outgrowth in the head and tail. In orthotopic tumour model, 100 (td)Tomato fluorescent CRMM1 or CRMM2 cells were injected RO in 2 dpf embryos using a Pneumatic Picopump and a manipulator (WPI). After injection, the embryos were incubated in a 34 °C incubator. Images were acquired at 1-, 2- and 4-days post injection (dpi) with a Leica M165 FC stereo fluorescence microscope. Tumor growth was quantified by calculating the total fluorescence intensity and area with the ZF4 pixel counting program (Leiden). Each experiment was performed at least 3 times with a group size of >30 embryos.
Fluorescent CRMM1 and CRMM2 cells were injected at 2 dpf into the Duct of Cuvier (ectopic model) and behind the eye (orthotopic model) and TLD1433 was delivered by WA, IV and RO administration with or without a light treatment as described in 4.8. For the WA administration, the 4.6 nM TLD1433 solution was added to the tumour cells injected zebrafish at 2.5, 3.5, 4.5, 5.5 dpf and maintained for 12 h. At 3, 4, 5, 6 dpf, the fish water was refreshed, and after 1 h, embryos were exposed to green light for 90 min (21 mW/cm^2, 114 J/cm^2, 520 nm). For the IV and RO administration, 1 nL of 2.3 mM TLD1433 solution was injected via the dorsal vein or the RO site at 3, 4, 5, 6 dpf. After 1 h interval, the embryos were exposed to green light for 90 min (21 mW/cm^2, 114 J/cm^2, 520 nm). After treatment, the embryos images were acquired with a Leica M165 FC stereo fluorescence microscope. Tumor growth was quantified by calculating the total fluorescence intensity and area with the ZF4 pixel counting program (Leiden). Each experiment was performed at least 3 times with a group size of >30 embryos.

[1] abbreviates: Intravenous (1 nL of 2.3 mM), Light Dose 0 J.cm^−2, vs control dark group (100%).
The mark [2] stands for this setting: Intravenous (1 nL of 2.3 mM), Light Dose 114 J.cm^−2, vs control dark group (100%).
Where [3] appears, read: Water (4.6 nM), Light dose 0 J.cm^−2, vs control dark group (100%).
[4] abbreviates: Water (4.6 nM), Light dose 114 J.cm^−2, vs control dark group (100%).
The mark [5] stands for this setting: CRMM1, ectopic model, IV 2.3 mM, light 114 J.cm^−2.
[6] abbreviates: CRMM1, ectopic model, RO 2.3 mM, green light 114 J.cm^−2.

As for `Cc1ccnc(-c2cc(C)ccn2)c1.Cc1ccnc(-c2cc(C)ccn2)c1.[Cl-].[Cl-].[Ru+2].c1csc(-c2ccc(-c3ccc(-c4nc5c6cccnc6c6ncccc6c5[nH]4)s3)s2)c1` [TLD1433], the “PI (Fluorescence Intensity)” value is 1.6 (Intravenous (1 nL of 2.3 mM)), 1.6 (Retro-orbital (1 nL of 2.3 mM)) and 1.0 (Water (4.6 nM)). For the same molecule, the “PI (Tumour Area)” value (Intravenous (1 nL of 2.3 mM)) is 2.2, the “PI (Tumour Area)” value (Retro orbital (1 nL of 2.3 mM)) turned out to be 2.4 and the “PI (Tumour Area)” value (Water (4.6 nM)) was 1.0. Moreover, the “Relative Tumour Burden as Measured by Fluorescence Intensity” value came out at 94% under setting [1]; 59% under setting [2]; 85% (Retro-orbital (1 nL of 2.3 mM), Light Dose 0 J.cm^−2, vs control dark group (100%)); 53% (Retro-orbital (1 nL of 2.3 mM), Light Dose 114 J.cm^−2, vs control dark group (100%)); 91% under setting [3]; 89% under setting [4]. In addition, the “Tumour Area” value is, setting by setting: under setting [1], 102%; under setting [2], 46%; (Retro orbital (1 nL of 2.3 mM), Light dose 0 J.cm^−2, vs control dark group (100%)) 85%; (Retro orbital (1 nL of 2.3 mM), Light dose 114 J.cm^−2, vs control dark group (100%)) 36%; under setting [3], 103%; under setting [4], 99%. For the same molecule, under setting [5], the “inhibition of tumour area” value came to 54%. Further, the “inhibition of tumour fluorescence intensity” value under setting [5] amounted to 41%. This molecule also displayed a diminished fluorescence intensity under setting [6] of 47%. The diminished tumour area under setting [6] was 64%. The “effect on tumour burden (in words)” value (CRMM1, ectopic model, WA at the MTD (4.6 nM), light 114 J.cm^−2) is on record as “did not inhibit tumour burden”.

For the origin of these results see PMC7139549, “TLD1433 Photosensitizer Inhibits Conjunctival Melanoma Cells in Zebrafish Ectopic and Orthotopic Tumour Models” (Cancers, 2020).
